# Test: Degradation of omeprazole (PPI) by stomach acid when combined with buffering agent and/or protein component (FIGS. 1-6)
# Type: physicochemical
# Conditions: 40 mg omeprazole with 800 mg aluminum glycinate and 800 mg sodium bicarbonate (20:1 each); FIGS. 5 and 6; compared with sodium bicarbonate and omeprazole alone (FIGS. 3 and 4)
# Procedure: FIG. 2 is a line graph illustrating the degradation of 40 mg omeprazole when it is administered with 800 mg of L-carnosine and 800 mg sodium bicarbonate (20:1 ratio of L-carnosine to omeprazole and sodium bicarbonate to omeprazole). FIG. 4 is a line graph illustrating the degradation of 40 mg omeprazole when it is administered with 1600 mg sodium bicarbonate (40:1 ratio). FIG. 6 is a line graph illustrating the degradation of 40 mg omeprazole when it is administered with 800 mg of aluminum glycinate and 800 mg sodium bicarbonate (20:1 ratio of aluminum glycinate to omeprazole and sodium bicarbonate to omeprazole).
compound,measurement,value
COc1ccc2[nH]c([S+]([O-])Cc3ncc(C)c(OC)c3C)nc2c1 (stereo not shown) [omeprazole],degradation of the omeprazole,immediate degradation

# Reference: US20090023771A1, “PHARMACEUTICAL COMPOSITION COMPRISING A PROTON PUMP INHIBITOR AND PROTEIN COMPONENT” (The Curators of the University of Missouri, priority 2007, published 2009)
